Values of other authors in publication PMC10017685 (Nature Communications, 2023).

Tested on: human erythrocytes
Design: method as in DBAASP
Details: toxicity class label 1 or 0, meaning of the labels not given; DBAASP HC50 data, human erythrocytes; ref DBAASP; cited from earlier work

Sequence | Class (dedicated toxicity dataset used for toxicity classifier evaluation)
AAKKGCWTVSIPPKPCF [DBAASP_12530] | 0
AFALIAGALYRIFHRR [DBAASP_16955] | 0
AIGSILGALAKGLPTLISWIKNR [DBAASP_2156] | 1
AILTTLANWARKFL [DBAASP_3561] | 0
AKRHHGYKRKFH [DBAASP_732] | 0
ALFKTMLKKLGTMAL [DBAASP_10098] | 0
ALHKTMLKKLGTMAL [DBAASP_10090] | 0
ALLKTMLKKLGTMAL [DBAASP_10104] | 0
ALWKSLLKNVGKA [DBAASP_11806] | 0
ALWKTLLKKVLKAAA [DBAASP_7356] | 1
ALWKTMLKKLGT [DBAASP_10094] | 0
ALWKTMLKKLGTM [DBAASP_10093] | 0
ALWKTMLKKLGTMA [DBAASP_10092] | 0
ALWKTMLKKLGTMAL [DBAASP_10095] | 0
ALWKTMLKKLGTMALHAGK [DBAASP_10088] | 0
ALYKTMLKKLGTMAL [DBAASP_10103] | 0
AVDLAKIANKVLSSLF [DBAASP_2207] | 0
CAKAKAKAGSGAKAKAKAC [DBAASP_351] | 0
CFKFKFKFGSGFKFKFKFC [DBAASP_352] | 0
CVKVKVKVGSGVKVKVKVC [DBAASP_347] | 0
CVKVQVKVGSGVKVQVKVC [DBAASP_350] | 0
CVKVRVKVGSGVKVRVKVC [DBAASP_349] | 0
CVKVSVKVGSGVKVSVKVC [DBAASP_348] | 0
CWKWKWKWGSGWKWKWKWC [DBAASP_353] | 0
DIFGAIWPLALGALKNLIK [DBAASP_9407] | 1

Sequence | Class (dedicated toxicity dataset used for toxicity classifier evaluation)
DSHAKRHHGYKRKFHEKHHSHRGY [DBAASP_15] | 0
FFFFKKKKK [DBAASP_15834] | 1
FFFLSRIF [DBAASP_3232] | 0
FFGKVLKLIRKIF [DBAASP_2255] | 1
FFGSVLKLIPKIL [DBAASP_5799] | 0
FFGWLIKGAIHAGKAIHGLIHRRRH [DBAASP_3173] | 1
FFHHAFRGIVHVGKTIHRLVTG [DBAASP_9003] | 0
FFHHFARGIVHVGKTIHRLVTG [DBAASP_9009] | 0
FFHHIFRGIVHIGKTIHRLVTG [DBAASP_9010] | 1
FFHHIFRGIVHVGKKIHRLVKG [DBAASP_9984] | 0
FFHHIFRGIVHVGKKIHRLVTG [DBAASP_9986] | 0
FFHHIFRGIVHVGKTIHRLVTG [DBAASP_4867] | 1
FFHHIFRGIVHVGKTVHRLVTG [DBAASP_9008] | 0
FFHHIFRGVVHVGKTIHRLVTG [DBAASP_9007] | 0
FFHHVFRGIVHVGKTIHRLVTG [DBAASP_9006] | 0
FFLLSLIPSAISAIKKI [DBAASP_8438] | 0
FFPGIIKVAGAILPTAICAITKRC [DBAASP_10252] | 0
FFPIIAGMAAKLIPSLFCKITKKC [DBAASP_4209] | 1
FFPIIAGMAAKVICAITKKC [DBAASP_4211] | 1
FFPIVGKLLSGLF [DBAASP_1882] | 0
FFPLIFGALSSILPKIL [DBAASP_18209] | 1
FFRLLFHGVHHGGGYLNAA [DBAASP_1428] | 0
FFRLLFHGVHHVGKIKPRA [DBAASP_1429] | 0
FIGAIARLLSKIF [DBAASP_1465] | 1
FIGALLRPALKLLAGK [DBAASP_5719] | 0

Sequence | Class (dedicated toxicity dataset used for toxicity classifier evaluation)
FIGMIPGLIGGLISAIK [DBAASP_9867] | 1
FIHHAAGGLFSAGKAIHRLIRRRRR [DBAASP_17363] | 0
FIHHIIGGLFSAGKAIHRLIRRRRR [DBAASP_5623] | 1
FIHHIIGGLFSVGKHIHSLIHGH [DBAASP_12673] | 1
FIHHIIGGLFSVGKHIHSLIHRRRR [DBAASP_17379] | 1
FKRIVQRIKDFLR [DBAASP_3393] | 0
FLAGLIGGLAKML [DBAASP_1978] | 0
FLGAIAGVAAKFLPKVFCFITKKC [DBAASP_6167] | 1
FLGALFKVASKLVPAAICSISKKC [DBAASP_15602] | 0
FLGALIKGAIHGGRFIHGMIQNHH [DBAASP_1413] | 0
FLGALLKIGAKVLPSVLCGIFKKC [DBAASP_14203] | 1
FLGLLFHGVHHVGKWIHGLIHGHH [DBAASP_1001] | 1
FLGSIVGALASALPSLISKIRN [DBAASP_2209] | 1
FLGSLFSIGSKLLPGVIKLFQRKKQ [DBAASP_17526] | 1
FLIGMTQGLICLITRKC [DBAASP_1477] | 0
FLKGIKGMLGKLF [DBAASP_9109] | 0
FLKGIKGMLGKLL [DBAASP_9112] | 0
FLKGIVGKLGKLF [DBAASP_9110] | 0
FLKGIVGMLGKLF [DBAASP_8203] | 1
FLKGIVGMLGKLL [DBAASP_9111] | 0
FLKGIVGMLGKLW [DBAASP_9113] | 1
FLKWALKVAAK [DBAASP_16466] | 0
FLKWALKWAAK [DBAASP_16467] | 0
FLPAALAGIGGILGKLF [DBAASP_9469] | 0
FLPAIAGLAAKFLPKIFCAITKKC [DBAASP_13908] | 1

Sequence | Class (dedicated toxicity dataset used for toxicity classifier evaluation)
FLPAIAGVAAKFLPKIFCAITKKC [DBAASP_13909] | 0
FLPAIVGAAAKFLPKIFCAISKKC [DBAASP_4213] | 1
FLPAVLKVAAHILPTAICAISRRC [DBAASP_5694] | 0
FLPFLKSILGKIL [DBAASP_13349] | 0
FLPFLLSALPKVFCFFSKKC [DBAASP_6702] | 1
FLPFVGNLLKGLL [DBAASP_1881] | 0
FLPGILKVAAK [DBAASP_16464] | 0
FLPGILKVAANVVPGVI [DBAASP_16463] | 0
FLPGILKVAANVVPGVICAITKKC [DBAASP_16462] | 0
FLPGLIKAAVGVGSTILCKITKKC [DBAASP_8373] | 0
FLPIIAGAAAKVVEKIFCAISKKC [DBAASP_4217] | 1
FLPIIAGIAAKFLPKIFCTISKKC [DBAASP_4214] | 1
FLPIIAGMAAKVICAITKKC [DBAASP_4210] | 1
FLPIIGQLLSGLL [DBAASP_4222] | 0
FLPILAGLAAKIVPKLFCLATKKC [DBAASP_2201] | 1
FLPILAGLAAKLVPKVFCSITKKC [DBAASP_4220] | 1
FLPILAGLAANILPKVFCSITKKC [DBAASP_4221] | 1
FLPILASLAAKFGPKLFSLVTKKS [DBAASP_4418] | 0
FLPILASLAAKLGPKLFCLVTKKC [DBAASP_3537] | 1
FLPIVAGLAANFLPKIVCKITKKC [DBAASP_1889] | 1
FLPIVGKLLSGLF [DBAASP_1883] | 0
FLPIVGRLISGIL [DBAASP_13347] | 0
FLPIVGRLISGLL [DBAASP_5287] | 0
